The record followed here is US20260232666A1, “COMPOSITIONS AND METHODS FOR INHIBITION OF RAS” (TheRas, Inc., priority 2023, published 2026).

Test [1] addresses T1, Avi-KRAS G12C (1-169) GppNHp/RAF1 RBD-3×FLAG (52-151) (Homo sapiens, UniProt P01116, G12C).
T1 construct: Avi-KRAS G12C (1-169) GppNHp; Avi (N)
The test can be described thus: Raf1 RBD-KRAS G12C-GppNHp disruption assay (protein:protein interaction HTRF). It is filed as biochemical. The essentials: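 HTRF measuring RAF1 RBD binding to GppNHp-loaded KRAS G12C (50 nM) in Tris pH 7.5, 100 mM NaCl, 5 mM MgCl2, 10% DMSO. Compound, KRAS, RBD and detection reagents each added sequentially with 1 h room-temperature incubations; 10-point titration; excitation 320 nm, emission 615 nm; activity as % of DMSO; IC50 derived.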

Test [2] addresses T2, GDP-loaded KRAS4b (amino acids 1-169) G12C/C118S protein (Homo sapiens, UniProt P01116, C118S/G12C).
T2 construct: KRAS4b (amino acids 1-169) G12C/C118S protein; made in house
The test can be described thus: Covalent cysteine 12 modification by MALDI-TOF MS, GDP-loaded KRAS G12C. It is filed as binding. The settings on record: 15 minutes reaction time point. The essentials: (§1)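 1 μM GppNHp-, GTP- or GDP-loaded KRAS4b (1-169) G12C/C118S in 20 mM HEPES, 150 mM NaCl, 1 mM MgCl2, pH 7.3, at 1:2.5 protein:compound, room temperature in the dark. Percent Cys12 modification from MALDI-TOF peak heights (adduct/total protein), reported at 15 min.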

The target in test [3] is T3, GppNHp-loaded KRAS4b (amino acids 1-169) G12C/C118S protein (Homo sapiens, UniProt P01116, C118S/G12C).
T3 construct: KRAS4b (amino acids 1-169) G12C/C118S protein; made in house
The test can be described thus: Covalent cysteine 12 modification by MALDI-TOF MS, GppNHp-loaded KRAS G12C. It is filed as binding. To be noted: 15 minutes reaction time point. The essentials:
as §1

Where only a bound is given, the exact number is not on record here.

Consider `C=CC(=O)N1CC[C@@H](N(CC)c2nc(OC[C@@H]3C[C@@H](OC)CN3C)nc3c(F)c(-c4ccc(F)c5sc(N)c(C#N)c45)c(C(F)(F)F)cc23)[C@H]1C` (single isomer, unassigned) [Compound 117], for which the IC50 in test [1] lay in the range of 5000 to 20000 nM. The “GDP-KRAS G12C percent of modification” value in test [2] is on record as “D (percent of modification <10%)”. For the same compound, the “GppNHp-KRAS G12C percent of modification” value in test [3] is on record as “D (percent of modification <10%)”.
In turn, `C=CC(=O)N1CC[C@@H](N(C)c2nc(OC[C@@H]3C[C@@H](OC)CN3C)nc3c(F)c(-c4ccc(F)c5sc(N)c(C#N)c45)c(C(F)(F)F)cc23)[C@H]1C` (single isomer, unassigned) [Compound 172] gave an IC50 in test [1] of less than 500 nM. In test [2], the “GDP-KRAS G12C percent of modification” value was “A (percent of modification ≥70%)”. The “GppNHp-KRAS G12C percent of modification” value in test [3] is recorded as “A (percent of modification ≥70%)”.
`C=CC(=O)N1CC[C@@H](N(C)c2nc(OC[C@H]3C[C@@H](OC)CN3C)nc3c(F)c(-c4ccc(F)c5sc(N)c(C#N)c45)c(C(F)(F)F)cc23)[C@H]1C` (single isomer, unassigned) [Compound 173]: in test [1], the half-maximal inhibitory concentration (IC50) is less than 500 nM. For the same compound, the “GDP-KRAS G12C percent of modification” value in test [2] is listed as “A (percent of modification ≥70%)”. In test [3], the “GppNHp-KRAS G12C percent of modification” value is “A (percent of modification ≥70%)”.
In test [1], `C=CC(=O)N1CC[C@@H](N(C)c2nc(OC[C@@H]3C[C@@H](OC)CN3C)nc3c(F)c(-c4ccc(F)c5sc(N)c(C#N)c45)c(C(F)(F)F)cc23)[C@H]1C` (single isomer, unassigned) [Compound 174] registered a 50% inhibitory concentration (IC50) of 500 to 5000 nM. In addition, the “GDP-KRAS G12C percent of modification” value in test [2] was “D (percent of modification <10%)”. Besides, the “GppNHp-KRAS G12C percent of modification” value in test [3] is “D (percent of modification <10%)”.
On to `C=CC(=O)N1CC[C@@H](N(C)c2nc(OC[C@H]3C[C@@H](OC)CN3C)nc3c(F)c(-c4ccc(F)c5sc(N)c(C#N)c45)c(C(F)(F)F)cc23)[C@H]1C` (single isomer, unassigned) [Compound 175], for which the concentration for half-maximal inhibition (IC50) in test [1] fell in the range of 5000 to 20000 nM. In addition, the “GDP-KRAS G12C percent of modification” value in test [2] is reported as “D (percent of modification <10%)”. In test [3], the “GppNHp-KRAS G12C percent of modification” value is recorded as “D (percent of modification <10%)”.
Consider `C=CC(=O)N1CC[C@@H](N(C)c2nc(OC[C@@]34CCCN3C[C@H](F)C4)nc3c(F)c(-c4ccc(F)c5sc(N)c(C#N)c45)ccc23)[C@H]1CC` [Compound 4], for which, in test [1], the concentration for half-maximal inhibition (IC50) is less than 500 nM. For the same compound, in test [2], the “GDP-KRAS G12C percent of modification” value is recorded as “A (percent of modification ≥70%)”. Moreover, the “GppNHp-KRAS G12C percent of modification” value in test [3] is reported as “A (percent of modification ≥70%)”.
For `C=CC(=O)N1CCC(N(C)c2nc(OC[C@@]34CCCN3C[C@H](F)C4)nc3cc(-c4ccc(F)c5sc(N)c(C#N)c45)c(C#N)cc23)[C@H]1CC` (stereo partly drawn) [Compound 7], in test [1], the half-inhibitory concentration (IC50) was less than 500 nM. Besides, the “GDP-KRAS G12C percent of modification” value in test [2] was “A (percent of modification ≥70%)”. The “GppNHp-KRAS G12C percent of modification” value in test [3] is “A (percent of modification ≥70%)”.
For `C=CC(=O)N1CCC(N(CC)c2nc(OC[C@@]34CCCN3C[C@H](F)C4)nc3c(F)c(-c4ccc(F)c5sc(N)c(C#N)c45)c(C(F)(F)F)cc23)[C@H]1CC` (stereo partly drawn) [Compound 8], the IC50 in test [1] is less than 500 nM. Moreover, the “GDP-KRAS G12C percent of modification” value in test [2] is given as “C (10%≤percent of modification <50%)”. In addition, the “GppNHp-KRAS G12C percent of modification” value in test [3] was “C (10%≤percent of modification <50%)”.
As for `C=CC(=O)N1CCC(N(C)c2nc(OC[C@@H]3CCCN3C)nc3c(F)c(-c4nc(N)cc(C)c4C(F)(F)F)c(Cl)cc23)[C@H]1C` (stereo partly drawn) [Compound 9], the IC50 in test [1] was less than 500 nM. Besides, the “GDP-KRAS G12C percent of modification” value in test [2] is listed as “B (50≤percent of modification <70%)”. Also, the “GppNHp-KRAS G12C percent of modification” value in test [3] is listed as “C (10%≤percent of modification <50%)”.
Taken in the same sequence, the figures for `C=CC(=O)N1CCC(N(C)c2nc(OC[C@@]34CCCN3C[C@H](F)C4)nc3c(F)c(-c4nc(N)cc(C)c4C(F)(F)F)c(Cl)cc23)[C@H]1C` (stereo partly drawn) [Compound 10] were less than 500 nM, “A (percent of modification ≥70%)” and “B (50≤percent of modification <70%)”.
Taken in the same sequence, the figures for `C=CC(=O)N1CCC(N(CC)c2nc(OC[C@@]34CCCN3C[C@H](F)C4)nc3c(F)c(-c4ccc(F)c5sc(N)c(C#N)c45)ccc23)[C@H]1CC` (stereo partly drawn) [Compound 11] were less than 500 nM, “A (percent of modification ≥70%)” and “A (percent of modification ≥70%)”.
Taken in the same sequence, the figures for `C=CC(=O)N1CCC(N(CC)c2nc(OC[C@@]34CCCN3C[C@H](F)C4)nc3c(F)c(-c4ccc(F)c5sc(N)c(C#N)c45)c(Cl)cc23)[C@H]1CC` (stereo partly drawn) [Compound 12] were less than 500 nM, “C (10%≤percent of modification <50%)” and “C (10%≤percent of modification <50%)”.
Turning to `C=CC(=O)N1CCC(N(CC)c2nc(OC[C@@]34CCCN3C[C@H](F)C4)nc3cc(-c4ccc(F)c5sc(N)c(C#N)c45)c(C#N)cc23)[C@H]1CC` (stereo partly drawn) [Compound 14], the half-maximal inhibitory concentration (IC50) in test [1] was less than 500 nM. Moreover, the “GDP-KRAS G12C percent of modification” value in test [2] is “A (percent of modification ≥70%)”. Moreover, in test [3], the “GppNHp-KRAS G12C percent of modification” value was “A (percent of modification ≥70%)”.
Compound `C=CC(=O)N1CC[C@@H](N(CC)c2nc(OC[C@@]34CCCN3C[C@H](F)C4)nc3c(F)c(-c4ccc(F)c5sc(N)c(C#N)c45)ccc23)[C@H]1C` [Compound 17, 4-(4-(((2R,3R)-1-acryloyl-2-methylpyrrolidin-3-yl)(ethyl)amino)-8-fluoro-2-(((2R,7aS)-2-fluorotetrahydro-1H-pyrrolizin-7a(5H)-yl)methoxy)quinazolin-7-yl)-2-amino-7-fluorobenzo[b]thiophene-3-carbonitrile] yielded a half-maximal inhibitory concentration (IC50) in test [1] of less than 500 nM. Besides, in test [2], the “GDP-KRAS G12C percent of modification” value was “A (percent of modification ≥70%)”. Also, the “GppNHp-KRAS G12C percent of modification” value in test [3] is “A (percent of modification ≥70%)”.
Turning to `C=CC(=O)N1CC[C@@H](N(C)c2nc(OC[C@@]34CCCN3C[C@H](F)C4)nc3c(F)c(-c4ccc(F)c5sc(N)c(C#N)c45)c(C(F)(F)F)cc23)[C@H]1CC` [Compound 18], the IC50 in test [1] is less than 500 nM. In addition, in test [2], the “GDP-KRAS G12C percent of modification” value is “B (50≤percent of modification <70%)”. Further, the “GppNHp-KRAS G12C percent of modification” value in test [3] is “B (50≤percent of modification <70%)”.
Compound `C=CC(=O)N1CC[C@@H](N(C)c2nc(OC[C@@]34CCCN3C[C@H](F)C4)nc3c(F)c(-c4ccc(F)c5sc(N)c(C#N)c45)c(Cl)cc23)[C@H]1CC` [Compound 19] registered an IC50 in test [1] of less than 500 nM. The “GDP-KRAS G12C percent of modification” value in test [2] is listed as “C (10%≤percent of modification <50%)”. For the same compound, in test [3], the “GppNHp-KRAS G12C percent of modification” value is “C (10%≤percent of modification <50%)”.
Turning to `C=CC(=O)N1CC[C@@H](N(CC)c2nc(OC[C@@]34CCCN3C[C@H](F)C4)nc3c(F)c(-c4ccc(F)c5sc(N)c(C#N)c45)c(Cl)cc23)[C@H]1CC` [Compound 20], in test [1], the IC50 is less than 500 nM. In test [2], the “GDP-KRAS G12C percent of modification” value is given as “C (10%≤percent of modification <50%)”. The “GppNHp-KRAS G12C percent of modification” value in test [3] is reported as “C (10%≤percent of modification <50%)”.
In test [1], `C=CC(=O)N1CC[C@@H](N(C)c2nc(OC[C@@]34CCCN3C[C@H](F)C4)nc3cc(-c4ccc(F)c5sc(N)c(C#N)c45)c(F)cc23)[C@@H]1CC` [Compound 22] showed a half-inhibitory concentration (IC50) of 500 to 5000 nM. In addition, in test [2], the “GDP-KRAS G12C percent of modification” value is given as “A (percent of modification ≥70%)”. Also, the “GppNHp-KRAS G12C percent of modification” value in test [3] is given as “D (percent of modification <10%)”.
Taken in the same sequence, the figures for `C=CC(=O)N1CC[C@@H](N(C)c2nc(OC[C@@]34CCCN3C[C@H](F)C4)nc3c(F)c(-c4ccc(F)c5sc(N)c(C#N)c45)ccc23)[C@@H]1CC` [Compound 23] were less than 500 nM, “A (percent of modification ≥70%)” and “C (10%≤percent of modification <50%)”.
In the same order, the values of `C=CC(=O)N1CC[C@@H](N(C)c2nc(OC[C@@]34CCCN3C[C@H](F)C4)nc3cc(-c4ccc(F)c5sc(N)c(C#N)c45)c(C#N)cc23)[C@@H]1CC` [Compound 24] are less than 500 nM, “A (percent of modification ≥70%)” and “C (10%≤percent of modification <50%)”.
In the same order, the values of `C=CC(=O)N1CC[C@@H](N(CC)c2nc(OC[C@@]34CCCN3C[C@H](F)C4)nc3cc(-c4ccc(F)c5sc(N)c(C#N)c45)c(C#N)cc23)[C@H]1C` [Compound 25] are less than 500 nM, “A (percent of modification ≥70%)” and “A (percent of modification ≥70%)”.
Turning to `C=CC(=O)N1CC[C@@H](N(C)c2nc(OC[C@@]34CCCN3C[C@H](F)C4)nc3cc(-c4ccc(F)c5sc(N)c(C#N)c45)c(C#N)cc23)[C@@H]1C` [Compound 27], the IC50 in test [1] was less than 500 nM. Further, in test [2], the “GDP-KRAS G12C percent of modification” value is “A (percent of modification ≥70%)”. Moreover, in test [3], the “GppNHp-KRAS G12C percent of modification” value was “A (percent of modification ≥70%)”.
On to `C=CC(=O)N1CC[C@@H](N(C)c2nc(OC[C@@]34CCCN3C[C@H](F)C4)nc3cc(-c4ccc(F)c5sc(N)c(C#N)c45)c(F)cc23)[C@H]1CC` [Compound 29], for which the IC50 in test [1] was less than 500 nM. Also, in test [2], the “GDP-KRAS G12C percent of modification” value is “A (percent of modification ≥70%)”. Further, the “GppNHp-KRAS G12C percent of modification” value in test [3] is recorded as “A (percent of modification ≥70%)”.

As a reminder, the IC50 is the midpoint of a concentration-inhibition curve. A higher IC50 goes with a need for much substance.
